Test results reported in ChEMBL document CHEMBL1127972 (Bioorg Med Chem Lett, 1994).
Positions count from the first letter of the chain named.

Columns and labels:
[1] = molecular target: T1, Muscarinic acetylcholine receptor M1 (Rattus norvegicus, UniProt P08482); assay: In vitro binding affinity towards Muscarinic acetylcholine receptor M1 by the displacement of [3H]oxotremorine-M in rat brain membranes; assay type: cell membranes
T1 sequence (P08482 whole entry): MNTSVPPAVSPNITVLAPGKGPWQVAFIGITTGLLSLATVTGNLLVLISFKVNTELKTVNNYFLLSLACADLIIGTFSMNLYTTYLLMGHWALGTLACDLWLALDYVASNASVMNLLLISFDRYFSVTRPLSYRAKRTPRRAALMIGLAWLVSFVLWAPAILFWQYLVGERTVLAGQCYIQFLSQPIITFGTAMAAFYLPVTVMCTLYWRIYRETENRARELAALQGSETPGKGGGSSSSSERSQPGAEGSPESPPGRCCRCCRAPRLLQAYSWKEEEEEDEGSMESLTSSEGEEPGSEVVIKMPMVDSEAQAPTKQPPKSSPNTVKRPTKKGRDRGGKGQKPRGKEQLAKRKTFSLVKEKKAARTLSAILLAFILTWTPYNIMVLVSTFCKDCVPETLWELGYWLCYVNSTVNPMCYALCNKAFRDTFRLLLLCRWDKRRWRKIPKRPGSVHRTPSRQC

[2] = molecular target: T1, Muscarinic acetylcholine receptor M1; assay: In vitro binding affinity towards Muscarinic acetylcholine receptor M1 by the displacement of [3H]pirenzepine in rat cerebral cortical membranes; assay type: cell membranes, Membrane
[3] = molecular target: T2, Muscarinic acetylcholine receptor M1 (Homo sapiens) (UniProt P11229); assay: Percent stimulation of phospholipid hydrolysis in BHK cells transfected with human Muscarinic acetylcholine receptor M1 compared to maximal stimulation of carbachol at a dose of 100 uM; assay type: functional, cell-based
T2 sequence (whole entry): T1 sequence (P08482 whole entry) with V5A, S254T, S309P, K320R, G337A, V413I

Row | SMILES | IC50 [1] | IC50 [2] | Stimulation [3]
1 | CCCCCCOc1nsnc1C1=CC2(C)CCCCC2(C)N(C)C1 (stereo not drawn) | 1000 nM | 1230 nM | 
2 | CCCOc1nsnc1C1=CC(C)CN(C)C1 (stereo not drawn) | 17 nM | 15 nM | 6%
3 | CCCCCOc1nsnc1C1=CCC(C)N(C)C1 (stereo not drawn) | 9 nM | 5 nM | 18%
4 | COc1nsnc1C1=C(C)CCN(C)C1 | 1000 nM | 1000 nM | 
5 | CCCCCCOc1nsnc1C1=C(C)CCN(C)C1 | 100 nM | 112 nM | 
6 | C=CCCCOc1nsnc1C1=CCC(C)N(C)C1 (stereo not drawn) | 10 nM | 8 nM | 12%
7 | CCCCCCOc1nsnc1C1=CCC(C)N(C)C1 (stereo not drawn) | 6 nM | 5 nM | 27%
8 | CCOc1nsnc1C1=CCC(C)N(C)C1 (stereo not drawn) | 11 nM | 24 nM | 10%
9 | CCCCCCOc1nsnc1C1=CC(C)CN(C)C1 (stereo not drawn) | 14 nM | 7 nM | 12%
10 | COc1nsnc1C1=CCCN(C)C1 |  |  | 7%
11 | CCC#CCCOc1nsnc1C1=CCC(C)N(C)C1 (stereo not drawn) | 6 nM | 5 nM | 12%
12 | CCCOc1nsnc1C1=CCCN(C)C1 | 2 nM |  | 25%
13 | CCCCOc1nsnc1C1=CCC(C)N(C)C1 (stereo not drawn) | 9 nM | 8 nM | 9%
14 | CCCCCCOc1nsnc1C1=CCCN(C)C1 |  |  | 70%
15 | COc1nsnc1C1=CC(C)CN(C)C1 (stereo not drawn) | 600 nM | 580 nM | 
16 | CCCCCCOc1nsnc1C1=CCCN(C)C1C (stereo not drawn) | 83 nM | 48 nM | 
